Results from patent US20190307749A1, “Mitochondria-Division Inhibitor 1 Protects Against Amyloid-B Induced Mitochondrial Fragmentation and Synaptic Damage in Alzheimer's Disease” (Texas Tech University System, priority 2018, published 2019).

Key:
[1] = tested on: mouse neuroblastoma (N2a) cells; experiment: Immunoblotting analysis of mitochondrial dynamics, biogenesis and synaptic proteins; format: cell-based; conditions: Mdivi1 24 hrs or Aβ42 20 μM 6 hrs alone, vs untreated N2a cells
Method: (§1) Tissue culture: The N2a cells were grown for 3 days in a serum-free medium (1:1 mixture of DMEM and OptiMEM, plus penicillin and streptomycin [Invitrogen, Carlsbad, Calif., USA]) until the cells developed neuronal processes.
[…] of protein was resolved from each group of cells on a 4-12% Nu-PAGE gel (Invitrogen). The resolved proteins were transferred to […] (Novax Inc., San Diego, Calif., USA) and were then incubated for 1 hour at room temperature with a blocking buffer (5% dry milk dissolved in a TBST buffer). The PVDF membranes were incubated overnight with primary antibodies (see Table 2) and washed 3 times with a TBST buffer at 10-minute intervals. They were then incubated for 2 hours with appropriate secondary antibodies, followed by 3 additional washes at 10-minute intervals. Mitochondrial and synaptic proteins were detected with cheminilumniscence reagents (Pierce Biotechnology, Rockford, Ill., USA), and the bands from immunoblots were quantified on a Kodak scanner, following manufacturer's instructions (ID Image Analysis Software, Kodak Digital Science, Kennesaw, Ga., USA), and the gel images were analyzed from gel images captured with a Kodak digital science CD camera. The lanes were marked to define the positions and specific regions of the bands. An ID fine-band command was used to locate and to scan the bands in each lane and to record the readings.

N2a cells [2] = experiment: H2O2 production (Amplex Red H2O2 assay); format: cell-based, mouse; conditions: Mdivi1 24 hrs or Aβ42 20 μM 6 hrs alone, vs untreated N2a cells
Method: as §1
Mitochondrial functional assays. H2O2 production: Using an Amplex® Red H2O2 assay kit (Molecular Probes, Eugene, Oreg., USA), H2O2 production was measured using cell pellets, as described in Manczak and Reddy. Briefly, H2O2 production was measured in the protein lysates prepared from cell pellets of control untreated N2a cells and 4 treatment groups (FIG. 1). A BCA protein assay kit (Pierce Biotechnology) was used to estimate protein concentration. The reaction mixture contained mitochondrial proteins (μg/μl), Amplex Red reagents (50 μM), horseradish peroxidase (0.1 U/ml), and a reaction buffer (1×). The mixture was incubated at room temperature for 30 minutes, followed by spectrophotometer readings of fluorescence (570 nm). Finally, H2O2 production was determined, using a standard curve equation expressed in nmol/μg mitochondrial protein.

N2a cells [3] = experiment: Lipid peroxidation assay (4-hydroxy-2-nonenol, HNE-His ELISA); format: cell-based, mouse; conditions: Mdivi1 24 hrs or Aβ42 20 μM 6 hrs alone, vs untreated N2a cells
Method: as §1
Lipid peroxidation assay: Lipid peroxidates are unstable indicators of oxidative stress in the brain. The final product of lipid peroxidation is 4-hydroxy-2-nonenol (HNE), which was measured in the N2a cell lysates prepared from cell pellets of control and treatment groups. The inventors used an HNE-His ELISA kit (Cell BioLabs, Inc., San Diego, Calif., USA), as described in Manczak and Reddy. Briefly, freshly prepared protein as added to a 96-well protein binding plate and incubated overnight at 4° C. The protein then washed 3 times with a buffer. After the last wash, the anti-HNE-His antibody was added to the protein in the wells, incubated for 2 hours at room temperature, and then washed again 3 times. The samples were then incubated with a secondary antibody conjugated with peroxidase for 2 hours at room temperature, followed by incubation with an enzyme substrate. Optical density was measured (at 450 nm) to quantify the level of HNE.

N2a cells [4] = experiment: Cytochrome c oxidase activity; format: cell-based, mouse; conditions: Mdivi1 24 hrs or Aβ42 20 μM 6 hrs alone, vs untreated N2a cells
Method: as §1
Cytochrome c oxidase activity: Cytochrome oxidase activity was measured in each of the 5 groups of N2a cells. Enzyme activity was assayed spectrophotometrically using a Sigma Kit (Sigma-Aldrich) following manufacturer's instructions. […] The decrease in absorbance at […] was recorded for 1-min reactions at 10-sec intervals. Cytochrome oxidase activity was measured according to the following formula: mU/mg total mitochondrial protein=(A/min sample−(A/min blank)×1.1 mg protein×21.84). The protein concentrations were determined following the BCA method.

N2a cell mitochondria = experiment: Mitochondrial ATP levels (luciferase bioluminescence); format: cell-based, mouse; conditions: N2a cells; Mdivi1 24 hrs or Aβ42 20 μM 6 hrs alone; vs untreated N2a cells
Method: as §1
ATP levels: ATP levels were measured in N2a cell mitochondria from the treatment groups using an ATP determination kit (Molecular Probes). A bioluminescence assay was used, based on the reaction of ATP with recombinant firefly luciferase and its substract luciferin. Luciferase catalyzes the formation of light from ATP and luciferin. It is the emitted light that is linearly related to the concentration of ATP, which is measured with a luminometer. ATP levels were measured from mitochondrial pellets using a standard curve method.

N2a cells [5] = experiment: Cell viability (MTT assay); format: cell-based, mouse; conditions: Mdivi1 24 hrs or Aβ42 20 μM 6 hrs alone, vs untreated N2a cells
Method: as §1
The N2a cells from all 5 groups (4 treatment groups and 1 control group) were harvested, and their cell pellets were collected and used for quantitative real-time RT-PCR, immunoblotting analysis of mitochondrial and synaptic proteins, and mitochondrial functional assays for hydrogen peroxide production, lipid peroxidation, cytochrome c oxidase activity, and MTT determination. Isolated mitochondria from N2a cells from all 5 groups were used to determine mitochondrial ATP as described in Reddy et al..

[6] = tested on: mouse neuroblastoma (N2a) cells; experiment: Quantitative real-time RT-PCR: mRNA expression of mitochondrial dynamics, biogenesis and synaptic genes; format: cell-based; conditions: N2a cells + Aβ42; Mdivi1 given before (preventive) vs after (curative) Aβ42; mRNA and protein data
Method: as §1
Quantitative real-time RT-PCR: Using the reagent TriZol (Invitrogen), total RNA was isolated from cell pellets from the 5 N2a cell groups (FIG. 1). Using primer express software (Applied Biosystems, Carlsbad, Calif., USA), the inventors designed the oligonucleotide primers for the housekeeping genes 3-actin, GAPDH, mitochondrial structural genes, fission genes (Drp1, Fis1), fusion genes (MFN1, MFN2, Opa1), biogenesis genes (PGC1c, Nrf1, Nrf2, TFAM), and synaptic genes (synaptophysin and PSD95) (see Table 1 for primer sequences and amplicon sizes). Using SYBR-Green chemistry-based quantitative real-time RT-PCR, mRNA expressions of the above-mentioned genes were measured, as described by Manczak and Reddy.
The mRNA transcript level was normalized against β-actin and the GAPDH at each dilution. The standard curve was the normalized mRNA transcript level, plotted against the log-value of the input cDNA concentration at each dilution. To compare β-actin, GAPDH, and relative quantification was performed according to the (CT) method (Applied Biosystems). […] The ΔCT-value was obtained by subtracting the average β-actin CT value from the average CT-value of the synaptic mitochondrial ETC genes and the mitochondrial structural genes. The ΔCT of untreated cells was used as the calibrator. The fold change was calculated according to the formula 2^-(Δ ΔCT), where ΔΔCT is the difference between ΔCT and the ΔCT calibrator value. To determine the statistical significance of mRNA expression, the CT value differences between the untreated cells and other experimental groups of cells were used in relation to β-actin normalization. Statistical significance was calculated, using one-way ANOVA.

Compound	Drp1 protein level [1]	Fis1 protein level [1]	Mfn1 protein level [1]	Mfn2 protein level [1]	Nrf1 protein level [1]	Nrf2 protein level [1]	Opa1 protein level [1]	PGC1α protein level [1]	PSD95 protein level [1]	Synaptophysin protein level [1]	PSD95 protein level ([1]; listed as Aβ)	Synaptophysin protein level ([1]; listed as Aβ)	H2O2 levels (N2a cells [2])	Lipid peroxidation levels (4-hydroxy-2-nonenol) (N2a cells [3])	Cytochrome oxidase activity (N2a cells [4])	Mitochondrial ATP levels (N2a cell mitochondria)	Cell viability (N2a cells [5])	Protective effects against Aβ42, pre-treated vs post-treated cells [6]
Aβ42: Aβ42 peptide purchased from Anaspec, used to induce mitochondrial and synaptic toxicity in N2a cells	significantly higher	significantly higher	significantly lower	significantly lower	Significantly lower	Significantly lower	significantly lower	Significantly lower	significantly lower	significantly lower	significantly higher	significantly higher	significantly increased	Significantly higher	Significantly lower	Significantly lower	Significantly lower	
O=c1c2ccccc2[nH]c(=S)n1-c1cc(O)c(Cl)cc1Cl [water soluble Mdivi1, 3-(2,4-dichloro-5-hydroxyphenyl)-2-thioxo-2,3-dihydroquinazolin-4(1H)-one]																		stronger in pre-treated cells than post-treated cells
